Numbered stars: 1 amine (or outer) side, 2 acyl side, 3 side chain; on linkers, the order of the positions; unused ones are H or OH. Bridge positions count the residues as written; N and C are the ends. Square brackets hold non-standard residues; d marks the D form. Peptide text beside a SMILES is read from it. * marks the point of attachment. hPhe(3,5-F2-4-CF3) = N[C@@H](CCc1cc(F)c(C(F)(F)F)c(F)c1)C(=O)O; hPhe(3-Cl-4-CF3) = N[C@@H](CCc1ccc(C(F)(F)F)c(Cl)c1)C(=O)O; NMePhe(4-CF3) = CN[C@@H](Cc1ccc(C(F)(F)F)cc1)C(=O)O; Piperazinyl(4-(3-oxetanyl)) = C1OCC1N1CCN(*)CC1; Thiomorpholino(1,1-dioxo) = O=S1(=O)CCN(*)CC1; NMeAbu(4,4,4-F3) = CN[C@@H](CC(F)(F)F)C(=O)O; NMePhe(4-Cl) = CN[C@@H](Cc1ccc(Cl)cc1)C(=O)O; NMePhe(4-Me) = CN[C@@H](Cc1ccc(C)cc1)C(=O)O; X40 = O=C([C@H](Cc1cc(I)ccc1F)N[*:1])[*:2]; NMeGly(cPent) = CN[C@H](C(=O)O)C1CCCC1; Phe(3-I) = N[C@@H](Cc1cccc(I)c1)C(=O)O; Pro(4,4-F2) = O=C(O)[C@@H]1CC(F)(F)CN1; NMeGly(cBu) = CN[C@H](C(=O)O)C1CCC1; NMeY = CN[C@@H](Cc1ccc(O)cc1)C(=O)O; NMeCha = CN[C@@H](CC1CCCCC1)C(=O)O; NMehLeu = CN[C@@H](CCC(C)C)C(=O)O; NEtLeu = CCN[C@@H](CC(C)C)C(=O)O; NMeChg = CN[C@H](C(=O)O)C1CCCCC1; NMeI = CC[C@H](C)[C@H](NC)C(=O)O; NMeD = CN[C@@H](CC(=O)O)C(=O)O; NMeL = CN[C@@H](CC(C)C)C(=O)O; NMeNva = CCC[C@H](NC)C(=O)O; NMeV = CN[C@H](C(=O)O)C(C)C; NMeA = CN[C@@H](C)C(=O)O; NMeAib = CNC(C)(C)C(=O)O; Nle = CCCC[C@H](N)C(=O)O; Piperidide = C1CCN(*)CC1; Pra = C#CC[C@H](N)C(=O)O; Pyrrolidide = C1CCN(*)C1; Ac5c = NC1(C(=O)O)CCCC1; Aze = O=C(O)[C@@H]1CCN1; CF3 = FC(F)(F)*; Sar = CNCC(=O)O Bounds are passed on as bounds.

This test deals with Human pancreatic cancer cell line AsPC-1 (G12D mutation Kras). Nature of the test: AsPC-1 cell growth inhibition (AsPC-1 CGI). The test is classed as cell-based. Conditions: read-out: AsPC-1 cell growth inhibition, 50% growth inhibitory concentration (IC50 value); 96 hours, CellTiter-Glo, values classified in ranges.
Experimental: Test compounds were serially dilated with dimethyl sulfoxide, and 200 nL was then dispensed to a U-bottom 96-well plate using Labcyte Echo. […] The cell suspension was dispensed to a. plate containing a test compound at 100 μL per well and incubated at 37° C. in a 5% carbon dioxide gas incubator. 96 hours later, 80 μL of CellTiter-Glo (Promega) was added to each well and fluorescence was measured.
Consider `CC[C@H](C)[C@@H]1NC(=O)[C@H](CC(C)C)N(C)C(=O)C[C@@H](C(=O)N2CCS(=O)(=O)CC2)NC(=O)[C@H]([C@@H](C)CC)N(C)C(=O)C2(CCCC2)NC(=O)[C@@H]2CCCN2C(=O)[C@H](CCc2ccc(C(F)(F)F)c(Cl)c2)NC(=O)CN(C)C(=O)[C@H](CC2CCCCC2)N(C)C(=O)CN(C)C(=O)CN(C)C1=O` [Compound 1279] ([NMeL]I[Sar][Sar][NMeCha][Sar][hPhe(3-Cl-4-CF3)]P[Ac5c][NMeI]D-{Thiomorpholino(1,1-dioxo)}; lactam N-11), for which the IC50 was > 500 nM.

As for `CC[C@H](C)[C@@H]1NC(=O)[C@H](CC(F)(F)F)N(C)C(=O)C[C@@H](C(=O)N2CCCC2)N(C)C(=O)[C@H](C2CCCCC2)N(C)C(=O)C2(CCCC2)NC(=O)[C@@H]2CC(F)(F)CN2C(=O)[C@H](CCc2cc(F)c(C(F)(F)F)c(F)c2)NC(=O)CN(C)C(=O)[C@H](CC2CCCCC2)N(C)C(=O)CN(C)C(=O)CN(C)C1=O` [Compound 1281] ([NMeAbu(4,4,4-F3)]I[Sar][Sar][NMeCha][Sar][hPhe(3,5-F2-4-CF3)][Pro(4,4-F2)][Ac5c][NMeChg][NMeD]-Pyrrolidide; lactam N-11), the IC50 is ≤ 20 nM. For `CC[C@H](C)[C@@H]1NC(=O)[C@H](CC(C)C)N(CC)C(=O)C[C@@H](C(=O)N(C)C)N(C)C(=O)[C@H](C2CCCC2)N(C)C(=O)C2(CCCC2)NC(=O)[C@@H]2CCCN2C(=O)[C@H](CCc2ccc(C(F)(F)F)c(Cl)c2)NC(=O)CN(C)C(=O)[C@H](Cc2ccc(C)cc2)N(C)C(=O)[C@@H]2CCN2C(=O)[C@H](C)NC1=O` [Compound 1282] ([NEtLeu]IA[Aze][NMePhe(4-Me)][Sar][hPhe(3-Cl-4-CF3)]P[Ac5c][NMeGly(cPent)][NMeD]-NMe2; lactam N-11) the value was ≤ 20 nM; for `CCCC[C@@H]1NC(=O)[C@H](Cc2cc(I)ccc2F)NC(=O)CN(C)C(=O)[C@H](Cc2ccc(Cl)cc2)N(C)C(=O)CN(C)C(=O)CN(C)C(=O)[C@H]([C@@H](C)CC)NC(=O)[C@H](CC(C)C)N(C)C(=O)C[C@@H](C(=O)N2CCCCC2)N(C)C(=O)[C@H](CC(C)C)NC(=O)C(C)(C)N(C)C1=O` [Compound 1286] ([NMeL]I[Sar][Sar][NMePhe(4-Cl)][Sar][X40][Nle][NMeAib]L[NMeD]-Piperidide; lactam N-11), > 500 nM; for `C#CC[C@@H]1NC(=O)[C@H](Cc2cccc(I)c2)NC(=O)CN(C)C(=O)[C@H](Cc2ccc(OC(F)(F)F)cc2)N(C)C(=O)[C@@H]2CCN2C(=O)[C@H](C)N(C)C(=O)[C@H]([C@@H](C)CC)NC(=O)[C@H](CC(C)C)N(C)C(=O)C[C@@H](C(=O)N2CCCCC2)N(C)C(=O)[C@H](CC(C)C)NC(=O)C(C)(C)N(C)C1=O` [Compound 1288] ([NMeL]I[NMeA][Aze][NMeY](CF3)[Sar][Phe(3-I)][Pra][NMeAib]L[NMeD]-Piperidide; lactam N-11), > 500 nM. With `CC[C@H](C)[C@@H]1NC(=O)[C@H](CCC(C)C)N(C)C(=O)C[C@@H](C(=O)N2CCCC2)N(C)C(=O)[C@H]([C@@H](C)CC)N(C)C(=O)C2(CCCC2)NC(=O)[C@@H]2CCCN2C(=O)[C@H](CCc2ccc(C(F)(F)F)c(Cl)c2)NC(=O)CN(C)C(=O)[C@H](Cc2ccc(C(F)(F)F)cc2)N(C)C(=O)[C@@H]2CCN2C(=O)[C@H](C)N(C)C1=O` [Compound 1289] ([NMehLeu]I[NMeA][Aze][NMePhe(4-CF3)][Sar][hPhe(3-Cl-4-CF3)]P[Ac5c][NMeI][NMeD]-Pyrrolidide; lactam N-11) the figure was ≤ 20 nM. For the compound `CC[C@H](C)[C@@H]1NC(=O)[C@H](CC(C)C)N(C)C(=O)C[C@@H](C(=O)N2CCN(C3COC3)CC2)NC(=O)[C@H](C(C)C)N(C)C(=O)C2(CCCC2)NC(=O)[C@@H]2CCCN2C(=O)[C@H](CCc2ccc(C(F)(F)F)c(Cl)c2)NC(=O)CN(C)C(=O)[C@H](CC2CCCCC2)N(C)C(=O)[C@@H]2CCN2C(=O)[C@H](C)N(C)C1=O` [Compound 1294] ([NMeL]I[NMeA][Aze][NMeCha][Sar][hPhe(3-Cl-4-CF3)]P[Ac5c][NMeV]D-{Piperazinyl(4-(3-oxetanyl))}; lactam N-11), the IC50 is > 500 nM.

Turning to `CC[C@H](C)[C@@H]1NC(=O)[C@H](C2CCC2)N(C)C(=O)C[C@@H](C(=O)N2CCCC2)N(C)C(=O)[C@H](C2CCCCC2)N(C)C(=O)C2(CCCC2)NC(=O)[C@@H]2CC(F)(F)CN2C(=O)[C@H](CCc2cc(F)c(C(F)(F)F)c(F)c2)NC(=O)CN(C)C(=O)[C@H](CC2CCCCC2)N(C)C(=O)CN(C)C(=O)CN(C)C1=O` [Compound 1295] ([NMeGly(cBu)]I[Sar][Sar][NMeCha][Sar][hPhe(3,5-F2-4-CF3)][Pro(4,4-F2)][Ac5c][NMeChg][NMeD]-Pyrrolidide; lactam N-11), the IC50 is ≤ 20 nM.

Regarding `CCC[C@H]1C(=O)N[C@@H]([C@@H](C)CC)C(=O)N(C)CC(=O)N(C)CC(=O)N(C)[C@@H](Cc2ccc(C)cc2)C(=O)N(C)CC(=O)N[C@@H](CCc2ccc(C(F)(F)F)c(Cl)c2)C(=O)N2CC(F)(F)C[C@H]2C(=O)NC2(CCCC2)C(=O)N(C)[C@@H](C2CCCCC2)C(=O)N(C)[C@H](C(=O)N2CCCC2)CC(=O)N1C` [Compound 1296] ([NMeNva]I[Sar][Sar][NMePhe(4-Me)][Sar][hPhe(3-Cl-4-CF3)][Pro(4,4-F2)][Ac5c][NMeChg][NMeD]-Pyrrolidide; lactam N-11), the IC50 is ≤ 20 nM.

The values are drawn from patent US20240148821A1, “PHARMACEUTICAL USE OF CYCLIC PEPTIDE COMPOUND” (CHUGAI SEIYAKU KABUSHIKI KAISHA, priority 2021, published 2024).
